According to patent publication US10669284B2, “Fused thiazolopyrimidine derivatives as MNKS inhibitors” (LIFEARC, priority 2015, dated 2020):

Tests used:
[1] = target: T1, Full-length human MNK1 (Homo sapiens, UniProt Q9BUB5, T385D); test: MNK1 biochemical IC50 assay (Caliper Mobility Shift Assay); conditions: read-out: P(IC50) MNK1 (converted)
T1 construct: GST (N); purchased Carna Biosciences 02-145; host or cells: baculovirus expression system

[2] = target: T2, Full-length human MNK2 (Homo sapiens, UniProt Q9HBH9, T379D); test: MNK2 biochemical IC50 assay (Caliper Mobility Shift Assay); conditions: read-out: P(IC50) MNK2 (converted)
T2 construct: GST (N); purchased Carna Biosciences 02-146; host or cells: baculovirus expression system

[3] = system: phosphorylation of eIF4E at ser209 in MV4.11 cell line; test: MNK cellular activity phospho-eIF4E detection assay (Alphascreen Surefire); format: cell-based; conditions: Homo sapiens; MV4.11 cell line, phospho-eIF4E (ser209) Alphascreen Surefire; read-out: P(IC50) elF4E (converted)
Outline: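 AlphaScreen SureFire sandwich-immunoassay readout of phospho-eIF4E Ser209 in lysed MV4.11 cells; acceptor then donor beads, each 1.5 hr at room temperature. Signal normalised to untreated DMSO-only controls; duplicate curves, values averaged over at least 2 independent experiments.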

T2 sequence (Q9HBH9 whole entry T379D): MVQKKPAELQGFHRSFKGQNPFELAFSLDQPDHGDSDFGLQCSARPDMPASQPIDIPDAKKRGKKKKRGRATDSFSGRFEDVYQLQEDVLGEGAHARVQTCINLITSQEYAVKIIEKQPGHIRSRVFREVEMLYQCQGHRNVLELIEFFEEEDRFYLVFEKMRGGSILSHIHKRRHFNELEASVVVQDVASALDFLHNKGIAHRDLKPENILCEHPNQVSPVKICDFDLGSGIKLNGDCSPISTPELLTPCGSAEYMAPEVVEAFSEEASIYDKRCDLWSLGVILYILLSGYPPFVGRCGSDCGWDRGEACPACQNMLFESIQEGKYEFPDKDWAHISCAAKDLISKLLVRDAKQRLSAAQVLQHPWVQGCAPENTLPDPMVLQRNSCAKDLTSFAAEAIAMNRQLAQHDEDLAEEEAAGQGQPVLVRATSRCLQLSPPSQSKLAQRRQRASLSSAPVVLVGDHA
T1 sequence (Q9BUB5 1-424 isoform Q9BUB5-2 T344D): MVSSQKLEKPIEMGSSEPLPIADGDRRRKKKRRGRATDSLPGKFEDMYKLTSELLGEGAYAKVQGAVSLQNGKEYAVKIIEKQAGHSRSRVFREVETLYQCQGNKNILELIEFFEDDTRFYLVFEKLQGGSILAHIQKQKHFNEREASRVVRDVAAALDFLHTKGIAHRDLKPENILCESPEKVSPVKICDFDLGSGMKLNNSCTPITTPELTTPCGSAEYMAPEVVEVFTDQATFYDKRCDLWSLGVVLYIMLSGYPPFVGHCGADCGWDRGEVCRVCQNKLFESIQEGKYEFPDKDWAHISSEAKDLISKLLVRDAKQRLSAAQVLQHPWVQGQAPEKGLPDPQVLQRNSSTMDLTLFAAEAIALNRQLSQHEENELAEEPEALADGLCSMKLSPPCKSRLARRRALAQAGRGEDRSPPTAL

| IC50 [1] | IC50 [2] | IC50 [3] | Compound |
| --- | --- | --- | --- |
| 20 nM | 12.6 nM | 10 nM | O=C(NCC(O)CO)c1nc2c(N3CCc4ccccc43)ncnc2s1 (stereo not drawn) [Example 104] |
| 2.51 nM | 2.51 nM | 1.58 nM | O=C(NC1CCOCC1)c1nc2c(N3CCc4cc(O)ccc43)ncnc2s1 [Example 114, 7-(5-hydroxyindolin-1-yl)-N-tetrahydropyran-4-yl-thiazolo[5,4-d]pyrimidine-2-carboxamide] |
| 20 nM | 31.6 nM | 794 nM | O=C(NCC1CCNCC1)c1nc2c(Nc3ccc4[nH]ncc4c3)ncnc2s1 [Example 50, 7-(1H-indazol-5-ylamino)-N-(4-piperidylmethyl)thiazolo[5,4-d]pyrimidine-2-carboxamide] |
| 5.01 nM | 5.01 nM | 5.01 nM | CNCCCNC(=O)c1nc2c(N3CCc4cc(F)ccc43)ncnc2s1 [Example 72, 7-(5-fluoroindolin-1-yl)-N-[3-(methylamino)propyl]thiazolo[5,4-d]pyrimidine-2-carboxamide] |
| 50.1 nM | 39.8 nM | 100 nM | CC(C)Oc1cc(F)ccc1Nc1ncnc2sc(C(=O)NCC3CNCCO3)nc12 (stereo not drawn) [Example 4, 7-(4-fluoro-2-isopropoxy-anilino)-N-(morpholin-2-ylmethyl)thiazolo[5,4-d]pyrimidine-2-carboxamide] |
| 5.01 nM | 5.01 nM | 15.8 nM | CN(C)CCNC(=O)c1nc2c(N3CCc4cc(F)ccc43)ncnc2s1 [Example 73, N-[2-(dimethylamino)ethyl]-7-(5-fluoroindolin-1-yl)thiazolo[5,4-d]pyrimidine-2-carboxamide] |
| 3.98 nM | 6.31 nM | 3.98 nM | CC1CN(c2ncnc3sc(C(=O)NC4CCN(C)CC4)nc23)c2ccccc21 (stereo not drawn) [Example 126, 7-(3-Methylindolin-1-yl)-N-(1-methyl-4-piperidyl)thiazolo[5,4-d]pyrimidine-2-carboxamide] |
| 158 nM | 126 nM | 63.1 nM | CC(C)Oc1cc(F)ccc1Nc1ncnc2sc(C(=O)NCCN(C)C)nc12 [Example 39, N-[2-(dimethylamino)ethyl]-7-{[4-fluoro-2-(propan-2-yloxy)phenyl]amino}[1,3]thiazolo[5,4-d]pyrimidine-2-carboxamide] |
| 100 nM | 126 nM | 126 nM | CCOc1cc(F)ccc1Nc1ncnc2sc(C(=O)NCC3CCNCC3)nc12 [Example 53, 7-(2-ethoxy-4-fluoro-anilino)-4-(4-piperidylmethyl)thiazolo[5,4-d]pyrimidine-2-carboxamide] |
| 5.01 nM | 5.01 nM | 5.01 nM | NCCC1CN(c2ncnc3sc(C(=O)NC4CC4)nc23)c2ccccc21 (stereo not drawn) [Example 164, 7-(3-(2-Aminoethyl)indolin-1-yl)-N-cyclo-propylthiazolo[5,4-d]pyrimidine-2-carboxamide] |
| 158 nM | 100 nM | 100 nM | O=C(NC1CCOCC1)c1nc2c(N3CCc4ncccc43)ncnc2s1 [Example 44, 7-(2,3-Dihydro-1H-pyrrolo[3,2-b]pyridin-1-yl)-N-(tetrahydro-2H-pyran-4-yl)[1,3]thiazolo[5,4-d]pyrimidine-2-carboxamide] |
| 5.01 nM | 3.98 nM | 10 nM | O=C(NC1CCOCC1)c1nc2c(N3CCc4cc(F)ccc43)ncnc2s1 [Example 66, 7-(5-fluoroindolin-1-yl)-N-tetrahydropyran-4-yl-thiazolo[5,4-d]pyrimidine-2-carboxamide] |
| 12.6 nM | 7.94 nM | 12.6 nM | O=C(NC1CCOCC1)c1nc2c(N3CC(CO)c4ccccc43)ncnc2s1 (stereo not drawn) [Example 109, 7-[3-(hydroxymethyl)indolin-1-yl]-N-tetrahydropyran-4-yl-thiazolo[5,4-d]pyrimidine-2-carboxamide] |
| 63.1 nM | 50.1 nM | 50.1 nM | CC(C)Oc1cc(F)ccc1Nc1ncnc2sc(C(=O)NC3CCNCC3)nc12 [Example 31, 7-{[4-Fluoro-2-(propan-2-yloxy)phenyl]amino}-N-(piperidin-4-yl)[1,3]thiazolo[5,4-d]pyrimidine-2-carboxamide] |
| 1580 nM | 1580 nM | 1000 nM | CN(C)CCCNC(=O)c1nc2c(Nc3cccc4c3OCC4)ncnc2s1 [Example 26, 7-(2,3-Dihydrobenzofuran-7-ylamino)-N-[3-(dimethylamino)propyl]thiazolo[5,4-d]pyrimidine-2-carboxamide] |
| 158 nM | 200 nM | 631 nM | CC1(C)CN(C(=O)c2nc3c(N4CCc5ccccc54)ncnc3s2)CCO1 [Example 102, (2,2-dimethylmorpholin-4-yl)-(7-indolin-1-ylthiazolo[5,4-d]pyrimidin-2-yl)methanone] |
| 251 nM | 200 nM | 126 nM | CC(C)Oc1cc(F)ccc1Nc1ncnc2scnc12 [Example 47, N-[4-fluoro-2-(propan-2-yloxy)phenyl][1,3]thiazolo[5,4-d]pyrimidin-7-amine] |
| 794 nM | 398 nM | 316 nM | CO[C@@H]1CCCC[C@H]1Oc1cc(F)ccc1Nc1ncnc2sc(C(=O)NCCCN(C)C)nc12 [Example 20, N-[3-(dimethylamino)propyl]-7-[4-fluoro-2-[(1R,2R)-2-methoxycyclohexoxy]anilino]thiazolo[5,4-d]pyrimidine-2-carboxamide] |
| 126 nM | 126 nM | 158 nM | O=C(NC1CCOCC1)c1nc2c(N3CCc4cccc(F)c43)ncnc2s1 [Example 90, 7-(7-Fluoroindolin-1-yl)-N-tetrahydropyran-4-yl-thiazolo[5,4-d]pyrimidine-2-carboxamide] |
| 200 nM | 126 nM | 100 nM | CNCCNC(=O)c1nc2c(Nc3ccc(F)cc3OC(C)C)ncnc2s1 [Example 30, 7-{[4-Fluoro-2-(propan-2-yloxy)phenyl]amino}-N-[2-(methylamino)ethyl][1,3]thiazolo[5,4-d]pyrimidine-2-carboxamide] |
| 6.31 nM | 5.01 nM | 20 nM | O=C(NCCN1CCCC1)c1nc2c(N3CCc4cc(F)ccc43)ncnc2s1 [Example 74, 7-(5-fluoroindolin-1-yl)-N-(2-pyrrolidin-1-ylethyl)thiazolo[5,4-d]pyrimidine-2-carboxamide] |
| 2 nM | 3.16 nM | 2.51 nM | CC1(C)CN(c2ncnc3sc(C(=O)NC4CCOCC4)nc23)c2ccc(F)cc21 [Example 105, 7-(5-Fluoro-3,3-dimethyl-indolin-1-yl)-N-tetrahydropyran-4-yl-thiazolo[5,4-d]pyrimidine-2-carboxamide] |
| 7.94 nM | 5.01 nM | 15.8 nM | NCCC1CN(c2ncnc3sc(C(=O)NCCC(F)(F)F)nc23)c2ccccc21 (stereo not drawn) [Example 167, 7-[3-(2-aminoethyl)indolin-1-yl]-N-(3,3,3-trifluoropropyl)thiazolo [5,4-d]pyrimidine-2-carboxamide] |
| 50.1 nM | 39.8 nM | 50.1 nM | C[C@@H]1Cc2ccccc2N1c1ncnc2sc(C(=O)NC3CCOCC3)nc12 [Example 130, 7-[(2R)-2-methylindolin-1-yl]-N-tetrahydropyran-4-yl-thiazolo[5,4-d]pyrimidine-2-carboxamide] |
